The values below come from patent US20050090522A1 (priority 2001, published 2005).

The test system of series [1] is HeLa cells. The experiment in a line: Cytotoxicity assay in HeLa cells (MTT dye reduction, CC50). Here is the method: • Virus production—Human embryonic Kidney cell line, 293, propagated in Dulbecco's Modified Eagle Medium (Life Technologies, Gaithersburg, Md.) containing 10% fetal Bovine serum (FBS, Sigma, St. Louis, Mo.). • Virus infection—Human epithelial cell line, HeLa, expressing the HIV-1 receptors CD4 and CCR^5 was propagated in Dulbecco's Modified Eagle Medium (Life Technologies, Gaithersburg, Md.) containing 10% fetal Bovine serum (FBS, Sigma, St. Louis, Mo.) and supplemented with 0.2 mg/mL Geneticin (Life Technologies, Gaithersburg, Md.) and 0.4 mg/mL Zeocin (Invitrogen, Carlsbad, Calif.). […] Transfections were performed using lipofectAMINE PLUS reagent as described by the manufacturer (Life Technologies, Gaithersburg, Md.). Experiment • 1. Compound was added to HeLa CD4 CCR5 cells plated in 96 well plates at a cell density of 5×10^4 cells per well in 100 μl Dulbecco's Modified Eagle Medium containing 10% fetal Bovine serum at a concentration of […]. • 2. 100 μl of single-round infectious reporter virus in Dulbecco's Modified Eagle Medium was then added to the plated cells and compound at an approximate multiplicity of infection (MOI) of 0.01, resulting in a final volume of 200 μl per well and a final compound concentration of <10 μM. • 3. Samples were harvested 72 h after infection. • 4. Viral infection was monitored by measuring luciferase expression from viral DNA in the infected cells using a luciferase reporter gene assay kit (Roche Molecular Biochemicals, Indianapolis, Ind.). Infected cell supernatants were removed and 50 μl of Dulbecco's Modified Eagle Medium (without phenol red) and 50 μl of luciferase assay reagent reconstituted as described by the manufacturer (Roche Molecular Biochemicals, Indianapolis, Ind.) was added per well. Luciferase activity was then quantified by measuring luminescence using a Wallac microbeta scintillation counter. • 5. […] An EC50 provides a method for comparing the antiviral potency of the compounds of this invention. The effective concentration for fifty percent inhibition (EC50) was calculated with the Microsoft Excel Xlfit curve fitting software. For each compound, curves were generated from percent inhibition calculated at 10 different concentrations by using a four paramenter logistic model (model 205). Table 1 is the key for the data in Tables 2-4. Cytoxicity assays were conducted with the same HeLa using methodology well known in the art.
(§1) For accuracy, the determined measure of viral inhibition is an EC50; but the minimum plasma concentrations which should be maintained in a patient is generally believed to be at least four or five fold higher. […] Lower is better. • 4) Estimating potential exposure in man by measuring parameters such as AUC and rate of clearance by oral and iv dosing in rats. High exposure and low clearance was desired.
For orientation: Tetrazolium dyes change colour on reduction, which living cells bring about.

Series [2] deals with HIV-1. Description: HIV-1 single-round infectious luciferase reporter virus (pseudotype) assay in HeLa CD4 CCR5 cells. Format: cell-based. The gist of the method:
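HeLa CD4 CCR5 cells (5×10^4/well, DMEM + 10% FBS) were treated with compound (final <10 μM) and infected with single-round luciferase reporter virus made in 293 cells, at MOI ~0.01. Luciferase was read 72 h post infection. EC50 came from 10-concentration percent-inhibition curves fitted to a four-parameter logistic model.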

A short description of series [3]: Metabolic stability in pooled human liver microsomes (HLM). To be noted: pooled human liver microsomes, 3 μM drug; Low/Intermediate/High. As for the experimental part: Metabolic Stability Studies of compounds in Liver Microsomes. The metabolic stability of compounds were investigated in pooled liver microsomes from humans. The human liver microsomes were obtained from BD Gentest (Lot #16, Woburn, Mass.) with a protein concentration of 20 mg/ml and a total cytochrome P450 (CYP) concentration of 0.55 nmol/mg protein. A stock solution of drug was prepared in acetonitrile at 1 mM. […] The incubation media consisted of potassium phosphate buffer (0.1 M, pH 7.4), liver microsomes (final concentration 0.9 mg/ml), magnesium chloride (0.033 mM), and a NADPH-regenerating system. […] The test compound was pre-incubated in the media for 2 min. The reaction was initiated by the addition of the cofactors. The incubation was carried out at 37° C. for 10 min. The reaction was terminated by drawing an aliquot of 100 μL from the incubation and adding into 200 μL of acetonitrile containing a reference compound as an […] analytical standard. Following vortex-mixing and centrifugation, an aliquot of 10 μL of the supernatant was analyzed by LC/MS.
GUIDELINES can be used to categorized test substances as low, intermediate or highly cleared compounds.
as §1
The stability of compounds were also evaluated to determine metabolic stability when incubated in in vitro preparations of human liver microsomes (HLM). This is one commonly used predictive system for evaluating the potential for human metabolism and projecting clearance rates in man. Compounds with low clearance rates were most desireable.
(In general: Liver microsomes are a subcellular fraction often used to study metabolism.)

Where [4] appears, read: cytotoxicity, Yes = CC50 above 100 uM, No = not.
Where [5] appears, read: Human immunodeficiency virus 1, HeLa-CD4/CCR5, read-out: EC50 Group from TABLE 1, HeLa CD4 CCR5 cells, single-round infectious luciferase reporter virus.
[6] abbreviates: Human immunodeficiency virus 1, HeLa-CD4/CCR5, read-out: EC50 category, HIV-1 single-round reporter virus assay, category 1/2/3 per Table A1 key.
Where [7] appears, read: Human immunodeficiency virus 1, HeLa-CD4/CCR5, read-out: EC50 Group from Table 1, Table 4, HeLa CD4 CCR5 cells, single-round luciferase reporter virus.
Where [8] appears, read: HeLa cells, six days with drug, MTT.
Setting [9] is: Human immunodeficiency virus 1, HeLa-CD4/CCR5, read-out: EC50 category, initial pseudotype assay, key in Table A1.
The mark [10] stands for this setting: Human immunodeficiency virus 1, HeLa-CD4/CCR5, read-out: EC50 Group from Table 1, Table 2-1, HeLa CD4 CCR5 cells, single-round luciferase reporter virus.

Read-outs that look alike come from different tables or passages of the source.

For `COc1ncc(-c2ncc(OC)c3c(C(=O)C(=O)N4CCN(C(=O)c5ccccc5)CC4)c[nH]c23)c(OC)n1` [Example 13, 1-benzoyl-4-[(4-methoxy-7-(2,4-dimethoxy-pyrimidin-5-yl)-6-azaindol-3-yl)-oxoacetyl]piperazine], the “CC50 > 100 uM” value in series [1] (setting [4]) is listed as “Yes”. For the same compound, the results for the EC50 in series [2] (setting [5]) and in series [2] (setting [6]) were below 1000 nM and 0.2 to 1000 nM, respectively.

As to `COc1cnc(-c2ccn(C)n2)c2[nH]cc(C(=O)C(=O)N3CCN(C(=O)c4ccccc4)CC3)c12` [Example 22, 1-benzoyl-4-[(4-methoxy-7-(1-methyl-pyrazol-3-yl)-6-azaindol-3-yl)-oxoacetyl]piperazine], the “CC50 > 100 uM” value in series [1] (setting [4]) is recorded as “No”. Further, the EC50 (as a rule, the concentration that produces a half-maximal response) in series [2] (setting [5]) is below 1000 nM; in series [2] (setting [6]) it was below 0.2 nM.

`COc1cnc(-c2cccn2C)c2[nH]cc(C(=O)C(=O)N3CCN(C(=O)c4ccccc4)CC3)c12` [Example 28, 1-benzoyl-4-[(4-methoxy-7-(11-methyl-pyrrol-2-yl)-6-azaindol-3-yl)oxoacetyl]piperazine]: the “CC50 > 100 uM” value in series [1] (setting [4]) is listed as “No”. Also, the concentration for a half-maximal effect (EC50) was below 1000 nM in series [2] (setting [5]) and above 1000 nM in series [2] (setting [6]).

Turning to `C[C@@H]1CN(C(=O)c2ccccc2)CCN1C(=O)C(=O)c1c[nH]c2c(-c3nccs3)ncc(F)c12` [Example 37, 1-benzoyl-3-(R)-methyl-4-[(4-fluoro-7-(thiazol-2-yl)-6-azaindol-3-yl)-oxoacetyl]piperazine], the “CC50 > 100 uM” value in series [1] (setting [4]) is reported as “No”. For the same compound, the EC50 is below 1000 nM in series [2] (setting [5]) and below 0.2 nM in series [2] (setting [6]).

Turning to `O=C(C(=O)N1CCN(C(=O)c2ccccc2)CC1)c1c[nH]c2c(-c3cc[nH]n3)ncc(F)c12` [Example 38, 1-benzoyl-4-[(4-fluoro-7-(pyrazol-3-yl)-6-azaindol-3-yl)-oxoacetyl]piperazine], in series [3], the “HLM predicted human clearance class” value is given as “Low (0-0.100)”. Moreover, the EC50 in series [2] (setting [5]) was below 1000 nM; in series [2] (setting [6]), below 0.2 nM.

`COc1cnc(-c2cncnc2)c2[nH]cc(C(=O)C(=O)N3CCN(C(=O)c4ccccc4)CC3)c12` [Example 40, 1-benzoyl-4-[(4-methoxy-7-(pyfimidin-5-yl)-6-azaindol-3-yl)-oxoacetyl]piperazine]: the “CC50 > 100 uM” value in series [1] (setting [4]) was “No”. Further, the figures for the EC50 in series [2] (setting [5]) and in series [2] (setting [6]) were below 1000 nM and 0.2 to 1000 nM, respectively.

As to `CNC(=O)c1ccc(-c2ncc(OC)c3c(C(=O)C(=O)N4CCN(C(=O)c5ccccc5)CC4)c[nH]c23)o1` [Example 94, 1-benzoyl-4-[(4-methoxy-7-(2-methylaminocarbonyl-furan-5-yl)-6-azaindol-3-yl)-oxoacetyl]piperazine], in series [1] (setting [4]), the “CC50 > 100 uM” value is “Yes”. Moreover, the EC50 in series [2] (setting [5]) is below 1000 nM; in series [2] (setting [6]), below 0.2 nM.

Regarding `O=C(C(=O)N1CCN(C(=O)c2ccccc2)CC1)c1c[nH]c2c(-c3cnc[nH]3)ncc(F)c12` [Example 148], in series [1] (setting [4]), the “CC50 > 100 uM” value was “Yes”. Besides, the figures for the EC50 in series [2] (setting [5]) and in series [2] (setting [6]) were below 1000 nM and 0.2 to 1000 nM, respectively.

Take `COc1cnc(-n2cccn2)c2[nH]cc(C(=O)C(=O)N3CCN(C(=O)c4ccccc4)CC3)c12` [Example 189, 1-benzoyl-4-[(4-methoxy-7-(1-pyrazolyl)-6-azaindol-3-yl)-oxoacetyl]piperazine]: the “CC50 > 100 uM” value in series [1] (setting [4]) was “Yes”. Further, the EC50 in series [2] (setting [5]) is below 1000 nM; in series [2] (setting [6]), 0.2 to 1000 nM.

On to `COc1cnc(-n2cc(C)cn2)c2[nH]cc(C(=O)C(=O)N3CCN(C(=O)c4ccccc4)CC3)c12` [Example 191, 1-benzoyl-4-[(4-methoxy-7-(4-methylpyrazol-1-yl)-6-azaindol-3-yl)-oxoacetyl]piperazine], for which, in series [1] (setting [4]), the “CC50 > 100 uM” value is on record as “Yes”. Moreover, the figures for the 50% effective concentration (EC50) in series [2] (setting [5]) and in series [2] (setting [6]) were below 1000 nM and 0.2 to 1000 nM, respectively.

On to `O=C(C(=O)N1CCN(C(=O)c2ccccc2)CC1)c1c[nH]c2c(-n3ccnn3)ccnc12` [Example 206, 1-(4-benzoyl-piperazin-1-yl)-2-(7-[1,2,3]triazol-1-yl-1H-pyrrolo[3,2-b]pyridin-3-yl)-ethane-1,2-dione], for which the “CC50 > 100 uM” value in series [1] (setting [4]) was “Yes”. Besides, the results for the half-maximal effective concentration (EC50) in series [2] (setting [7]) and in series [2] (setting [6]) were below 1000 nM and 0.2 to 1000 nM, respectively.

As for `O=C(C(=O)N1CCN(C(=O)c2ccccc2)CC1)c1c[nH]c2c(-n3cccn3)ccnc12` [Example 208, 1-(4-Benzoyl-piperazin-1-yl)-2-(7-pyrazol-1-yl-1H-pyrrolo[3,2-b]pyridin-3-yl)-ethane-1,2-dione], the “CC50 > 100 uM” value in series [1] (setting [4]) was “Yes”. In addition, the EC50 is below 1000 nM in series [2] (setting [7]) and 0.2 to 1000 nM in series [2] (setting [6]).

Regarding `O=C(C(=O)N1CCN(C(=O)c2ccccc2)CC1)c1c[nH]c2c(-n3nccn3)ncc(F)c12` [Example 217], the “CC50 > 100 uM” value in series [1] (setting [8]) is recorded as “Yes”. Moreover, the EC50 was below 1000 nM in series [2] (setting [5]) and 0.2 to 1000 nM in series [2] (setting [9]).

Take `O=C(C(=O)N1CCN(C(=O)c2ccccc2)CC1)c1c[nH]c2c(-n3cccc3)ncc(F)c12` [Example 220]: the “CC50 > 100 uM” value in series [1] (setting [4]) was “Yes”. The EC50 is below 1000 nM in series [2] (setting [5]) and 0.2 to 1000 nM in series [2] (setting [6]).

Regarding `COc1cnc(-n2nccn2)c2[nH]cc(C(=O)C(=O)N3CCN(C(=O)c4ccccc4)[C@H](C)C3)c12` [Example 256, (R)-1-benzoyl-2-methyl-4-[(4-methoxy-7-(1,2,3-triazol-2-yl)-6-azaindol-3-yl)-oxoacetyl]piperazine], in series [1] (setting [8]), the “CC50 > 100 uM” value is on record as “Yes”. The concentration for a half-maximal effect (EC50) was below 1000 nM in series [2] (setting [10]) and 0.2 to 1000 nM in series [2] (setting [9]).

With `CNC(=O)c1ccn(-c2ncc(OC)c3c(C(=O)C(=O)N4CCN(C(=O)c5ccccc5)CC4)c[nH]c23)n1` [Example 276, 1-benzoyl-4-[(4-methoxy-7-(3-methylaminocarbonyl-pyrazol-1-yl)-6-azaindol-3-yl)-oxoacetyl]piperazine], in series [1] (setting [4]), the “CC50 > 100 uM” value was “Yes”. The EC50 was below 1000 nM in series [2] (setting [5]) and below 0.2 nM in series [2] (setting [6]).

`Cn1ncnc1-c1ncc(F)c2c(C(=O)C(=O)N3CCN(C(=O)c4ccccc4)CC3)c[nH]c12` [Example 301]: the “CC50 > 100 uM” value in series [1] (setting [4]) was “Yes”. Also, the concentration giving a half-maximal response (EC50) is below 1000 nM in series [2] (setting [5]) and 0.2 to 1000 nM in series [2] (setting [6]).

On to `COc1cnc(-c2nc(-c3ccoc3)n[nH]2)c2[nH]cc(C(=O)C(=O)N3CCN(C(=O)c4ccccc4)[C@H](C)C3)c12` [Example 340], for which, in series [2] (setting [10]), the EC50 is below 1000 nM.

For `COc1cnc(-c2nc(-c3csc(C)n3)n[nH]2)c2[nH]cc(C(=O)C(=O)N3CCN(C(=O)c4ccccc4)[C@H](C)C3)c12` [Example 341], the EC50 in series [2] (setting [5]) and in series [2] (setting [10]) was below 1000 nM in each case.

Regarding `COc1cnc(-c2cnccn2)c2[nH]cc(C(=O)C(=O)N3CCN(C(=O)OC(C)(C)C)CC3)c12` [Precursor 5t], in series [2] (setting [5]), the 50% effective concentration (EC50) was below 1000 nM.
